Results published in patent US5153181A, “Pharmaceutical compositions comprising organic polymers containing inorganic anionic groups and method of prophylaxis and treatment of retrovirus infections in mammals using said compositions” (priority 1986, dated 1992).
Like-named read-outs stand apart in the source and are kept apart here.

What was measured:
[1] = molecular target: T1, SR-D-associated reverse transcriptase (Rous sarcoma virus - Schmidt-Ruppin B, UniProt O92956); type: biochemical
T1 construct: alpha/beta heterodimer cut from Gag-Pol polyprotein

[2] = LD50 taken from published literature; conditions: in vivo; calculated from MW
Source text: The LD50 values are known from the literature.
The results shown in FIGS. 1A and B allow to determine the concentration of the inhibitors which result in 90% or 99% inhibition. The quotient of the LD50 values (taken from published literature) and the inhibitor concentrations indicated in FIG. 1 is the efficiency index shown in Table I.

[3] = cited from earlier work
[4] = known from the literature; cited from earlier work
[5] = poly(rA) template, oligo(dT)10 primer, FIGS. 1A and B

T1 sequence (O92956 709-1567): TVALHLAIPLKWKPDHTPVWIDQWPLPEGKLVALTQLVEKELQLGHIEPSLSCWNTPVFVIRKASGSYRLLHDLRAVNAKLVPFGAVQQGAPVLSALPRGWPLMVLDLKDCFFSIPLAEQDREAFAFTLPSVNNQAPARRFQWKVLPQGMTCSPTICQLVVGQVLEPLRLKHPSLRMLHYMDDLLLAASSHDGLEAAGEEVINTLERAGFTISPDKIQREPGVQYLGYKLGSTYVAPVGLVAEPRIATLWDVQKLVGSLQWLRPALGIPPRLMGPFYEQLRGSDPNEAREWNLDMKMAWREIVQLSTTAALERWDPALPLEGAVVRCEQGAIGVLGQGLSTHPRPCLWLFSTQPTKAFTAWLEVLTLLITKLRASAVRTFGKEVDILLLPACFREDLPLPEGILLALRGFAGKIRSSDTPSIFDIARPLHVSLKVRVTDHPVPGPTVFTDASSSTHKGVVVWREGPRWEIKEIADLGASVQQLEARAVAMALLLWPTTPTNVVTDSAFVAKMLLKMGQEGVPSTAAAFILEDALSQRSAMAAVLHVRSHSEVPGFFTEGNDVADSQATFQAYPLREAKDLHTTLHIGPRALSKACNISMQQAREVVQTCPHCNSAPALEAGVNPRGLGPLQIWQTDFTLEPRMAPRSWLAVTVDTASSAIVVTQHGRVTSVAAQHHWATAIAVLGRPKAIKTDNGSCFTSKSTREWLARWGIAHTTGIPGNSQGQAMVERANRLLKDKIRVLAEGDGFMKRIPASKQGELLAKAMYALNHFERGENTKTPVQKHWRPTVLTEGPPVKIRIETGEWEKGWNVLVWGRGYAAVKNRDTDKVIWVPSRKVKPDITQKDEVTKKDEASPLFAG

Row | Compound | Inhibition of RNA-dependent DNA synthesis (3H-TMP incorporation) [1, 5] | other results
1 | O=C(O)P(=O)(O)O [foscarnet] | Somewhat less inhibitory | LD50 [2]: 500 mg/kg; Toxicity in clinical trials [3]: considerable toxicity
2 | Cc1ccc(C(=O)Nc2ccc(S(=O)(=O)O)c3cc(S(=O)(=O)O)cc(S(=O)(=O)O)c23)cc1NC(=O)c1cccc(NC(=O)Nc2cccc(C(=O)Nc3cc(C(=O)Nc4ccc(S(=O)(=O)O)c5cc(S(=O)(=O)O)cc(S(=O)(=O)O)c45)ccc3C)c2)c1 [suramin] | – | Inhibition of RNA-dependent DNA synthesis (3H-TMP incorporation) [1]: Somewhat less inhibitory; LD50 [4]: 40 mg/kg
3 | chondroitin sulfate | Low inhibitory effect | –
4 | dextran | Low inhibitory effect | –
5 | dextran sulfate MW 8,000 | efficient inhibitors | –
6 | dextran sulfate MW 500,000 | efficient inhibitors | –
7 | dextran sulfate MW 5000 | Low inhibitory effect | –
8 | diethylamine ethyl-dextran [DEAE-dextran] | Low inhibitory effect | –
9 | heparin | Low inhibitory effect | –
10 | pentosan polysulfate MW 5,000 | Somewhat less inhibitory | –
